Reference: patent publication USRE46856E1, “Substituted 2,3-dihydroimidazo[1,2-c]quinazoline derivatives useful for treating hyper-proliferative disorders and diseases associated with angiogenesis” (Bayer Intellectual Property GmbH, priority 2006, dated 2018)
Structures can show the parent of a compound that is named as a salt.

Test system: IGF-1 induced AKT phosphorylation in A549 cells
Assay: IGF-1 induced AKT phosphorylation assay (A549 cell assay)
Assay type: cell-based
Conditions: Homo sapiens; A549 cells, 25 ng/ml IGF-1, phospho-AKT(Ser 473); read-out: average IC50 in the A549 cell assay
Source text: [Determination of IC50 Values of Compounds in Cell Based Assays of PI3K Activity] 96-well collagen treated clear bottom/black sided Costar plates were purchased from CORNING LIFE SCIENCES (Corning, N.Y.; at.#3904). Gibco RPMI medium (Cat.#11875), Biosource anti-phospho-AKT([…]) antibody (Cat.#44-621G) and recombinant IGF-1 (Cat.#PHG0074) were purchased from INVITROGEN (Carlsbad, Calif.). The secondary donkey anti-rabbit IgG horse radish peroxidase conjugate (Cat. #N[…]) and ECL chemiluminesence reagent (Cat.#RPN2209) were purchased from […] (Buckinghamshire, UK). Cell culture tested bovine serum albumin solution (35% in DPBS; Cat.#A7979) and all other chemicals were purchased from SIGMA (St. Louis, Mo.). The Wallac Victor2 1420 Multilabel HTS Counter was purchased from […] (Wellesley, Mass.) […] All wells (except no IGF-1 controls) were then treated with 25 ng/ml IGF-1 for 10 minutes at 37° C. in a 5% CO2 incubator. Following removal of the supernatants and washing with the wells with TBS (50 mM Tris pH 8.0 containing 138 mM NaCL and 27 mM KCl), 200 µL of 3.7% formaldehyde in TBS was added to each well, and the plate was incubated at 4° C. for 10 minutes. Supernatants were once again removed and replaced with 50 μL Methanol (-20° C.) and the plate incubated at 4° C. for 5 minutes. 200 μL of 0.1% BSA in TBS was then added to each well and the plate incubated at room temperature for 1⁄2 hour. Supernatants were removed and 50 μL of a solution comprising the primary anti-phospho-AKT([…]) antibody diluted 1:250 in TBS containing 0.1% BSA was added to each well (except control/background wells). The plate was then incubated for 11⁄2 hour at room temperature. Supernatants were removed, each well was washed 3 times with 200 μL TBS, and 100 μL of a solution containing the secondary donkey anti-rabbit IgG antibody HRP-conjugate diluted 1:100 in TBS-T (TBS containing 0.1% triton). Plates were then incubated for 1 hour at room temperature. After removing the secondary antibody, each well was washed 6 times with cold TBS-T, 100 μL of ECL was added to each well, and the plate was placed on an orbital shaker for 1 minute. The plates were then read on a Wallac Victor2 1420 Multilabel HTS Counter using the luminometry window (maximum light detection is measured at […]). IC50 values were determined from the inhibition curve.

Question: How did the IC50 turn out when `COc1c(OCCCN2CCOCC2)ccc2c1N=C(NC(=O)c1ccc(N3CC[C@H](N)C3)nc1)N1CCN=C21` [Example 51, 6-[(3S)-3-aminopyrrolidin-1-yl]-N-[7-methoxy-8-(3-morpholin-4-ylpropoxy)-2,3-dihydroimidazo[1,2-c]quinazolin-5-yl]nicotinamide hydrochloride hydrate] was run?
Answer: 100 to 1000 nM

Question: `COc1c(OCCN2CCCCC2)ccc2c1N=C(NC(=O)c1cccnc1)N1CCN=C21` [Example 76, N-[7-methoxy-8-(2-piperidin-1-ylethoxy)-2,3-dihydroimidazo[1,2-c]quinazolin-5-yl]nicotinamide] was tested. Which IC50 did it give?
Answer: < 100 nM

Question: `COc1c(OCCCN2CCOCC2)ccc2c1N=C(NC(=O)c1cccnc1)N1CCN=C21` [Example 103, N-[7-methoxy-8-(3-morpholin-4-ylpropoxy)-2,3-dihydroimidazo[1,2-c]quinazolin-5-yl]nicotinamide] was tested. Which IC50 did it give?
Answer: < 100 nM

Question: How did the IC50 turn out when `CNc1nc(C(=O)NC2=Nc3c(ccc(OCCCN4CCOCC4)c3OC)C3=NCCN23)cs1` [Example 67, N-[7-methoxy-8-(3-morpholin-4-ylpropoxy)-2,3-dihydroimidazo[1,2-c]quinazolin-5-yl]-2-(methylamino)-1,3-thiazole-4-carboxamide] was run?
Answer: 100 to 1000 nM

Question: Which IC50 does the source give for `COc1c(OCCCN2CCN(C)CC2)ccc2c1N=C(NC(=O)c1cccnc1)N1CCN=C21` [Example 64, N-{7-methoxy-8-[3-(4-methylpiperazin-1-yl)propoxy]-2,3-dihydroimidazo[1,2-c]quinazolin-5-yl}nicotinamide] here?
Answer: 100 to 1000 nM

Question: For `COc1c(OCCCN2CCOCC2)ccc2c1N=C(NC(=O)c1ccc(N)nc1C)N1CCN=C21` [Example 31, 6-amino-N-[7-methoxy-8-(3-morpholin-4-ylpropoxy)-2,3-dihydroimidazo[1,2-c]quinazolin-5-yl]-2-methyl nicotinamide], which IC50 is on record?
Answer: < 100 nM

Question: For `COc1ncc(C(=O)NC2=Nc3c(ccc(OCCCN4CCOCC4)c3OC)C3=NCCN23)cn1` [Example 95, 2-methoxy-N-[7-methoxy-8-(3-morpholin-4-ylpropoxy)-2,3-dihydroimidazo[1,2-c]quinazolin-5-yl]pyrimidine-5-carboxamide], which IC50 is on record?
Answer: < 100 nM

Question: For `COc1c(OCCN2CCOCC2)ccc2c1N=C(NC(=O)c1cccnc1)N1CCN=C21` [Example 68, N-[7-methoxy-8-(2-morpholin-4-ylethoxy)-2,3-dihydroimidazo[1,2-c]quinazolin-5-yl]nicotinamide], which IC50 is on record?
Answer: < 100 nM

Question: How did the IC50 turn out when `CCNC(=O)Nc1ccc(C(=O)NC2=Nc3c(ccc(OCCCN4CCOCC4)c3OC)C3=NCCN23)cn1` [Example 77, 6-{[(ethylamino)carbonyl]amino}-N-[7-methoxy-8-(3-morpholin-4-ylpropoxy)-2,3-dihydroimidazo[1,2-c]quinazolin-5-yl]nicotinamide] was run?
Answer: < 100 nM

Question: With `COc1c(OCCN(C)C)ccc2c1N=C(NC(=O)c1sc(C)nc1C)N1CCN=C21` [Example 69, N-{8-[2-(dimethylamino)ethoxy]-7-methoxy-2,3-dihydroimidazo[1,2-c]quinazolin-5-yl}-2,4-dimethyl-1,3-thiazole-5-carboxamide] as the compound, how does the IC50 read?
Answer: < 100 nM

Question: With `COc1c(OCCCN2CCOCC2)ccc2c1N=C(NC(=O)c1ccncc1)N1CCN=C21` [Example 84, N-[7-methoxy-8-(3-morpholin-4-ylpropoxy)-2,3-dihydroimidazo[1,2-c]quinazolin-5-yl]isonicotinamide] as the compound, how does the IC50 read?
Answer: 100 to 1000 nM

Question: Which IC50 does the source give for `COc1c(OCC2CN(C)CCO2)ccc2c1N=C(NC(=O)c1cccnc1)N1CCN=C21` (stereo not drawn) [Example 23, N-{7-methoxy-8-[(4-methylmorpholin-2-yl)methoxy]-2,3-dihydroimidazo[1,2-c]quinazolin-5-yl}nicotinamide] here?
Answer: < 100 nM

Question: How did the IC50 turn out when `COc1c(OCCCN2CCOCC2)ccc2c1N=C(NC(=O)c1cnc(N)c(Br)c1)N1CCN=C21` [Example 33, 6-amino-5-bromo-N-[7-methoxy-8-(3-morpholin-4-ylpropoxy)-2,3-dihydroimidazo[1,2-c]quinazolin-5-yl]nicotinamide] was run?
Answer: < 100 nM

Question: `COc1c(OCCCN2CCOCC2)ccc2c1N=C(NC(=O)c1cncnc1)N1CCN=C21` [Example 1, N-[7-methoxy-8-(3-morpholin-4-ylpropoxy)-2,3-dihydroimidazo[1,2-c]quinazolin-5-yl]pyrimidine-5-carboxamide] was tested. Which IC50 did it give?
Answer: 100 to 1000 nM

Question: With `COc1c(OCCCN2CCOCC2)ccc2c1N=C(NC(=O)c1ccoc1)N1CCN=C21` [Example 96, N-[7-methoxy-8-(3-morpholin-4-ylpropoxy)-2,3-dihydroimidazo[1,2-c]quinazolin-5-yl]-3-furamide] as the compound, how does the IC50 read?
Answer: 100 to 1000 nM

Question: With `COc1c(OCCCN(C)C)ccc2c1N=C(NC(=O)c1cnc(N)s1)N1CCN=C21` [Example 37, 2-amino-N-{8-[3-(dimethylamino)propoxy]-7-methoxy-2,3-dihydroimidazo[1,2-c]quinazolin-5-yl}-1,3-thiazole-5-carboxamide] as the compound, how does the IC50 read?
Answer: < 100 nM

Question: Which IC50 does the source give for `COc1c(OCCCN2CCOCC2)ccc2c1N=C(NC(=O)c1cnc(N)s1)N1CCN=C21` [Example 4, 2-amino-N-[7-methoxy-8-(3-morpholin-4-ylpropoxy)-2,3-dihydroimidazo[1,2-c]quinazolin-5-yl]-1,3-thiazole-5-carboxamide] here?
Answer: 100 to 1000 nM

Question: Which IC50 does the source give for `COc1c(OCCCN(C)C)ccc2c1N=C(NC(=O)c1cccnc1)N1CCN=C21` [Example 88, N-{8-[3-(dimethylamino)propoxy]-7-methoxy-2,3-dihydroimidazo[1,2-c]quinazolin-5-yl}nicotinamide] here?
Answer: 100 to 1000 nM

Question: How did the IC50 turn out when `COc1ccc(C(=O)NC2=Nc3c(ccc(OCCCN4CCOCC4)c3OC)C3=NCCN23)cn1` [Example 99, 6-methoxy-N-[7-methoxy-8-(3-morpholin-4-ylpropoxy)-2,3-dihydroimidazo[1,2-c]quinazolin-5-yl]nicotinamide] was run?
Answer: < 100 nM

Question: `COc1c(OCCCN2CCOCC2)ccc2c1N=C(NC(=O)c1cnc(NCCN(C)C)nc1)N1CCN=C21` [Example 45, 2-{[2-(dimethylamino)ethyl]amino}-N-[7-methoxy-8-(3-morpholin-4-ylpropoxy)-2,3-dihydroimidazo[1,2-c]quinazolin-5-yl]pyrimidine-5-carboxamide] was tested. Which IC50 did it give?
Answer: 100 to 1000 nM

Question: Which IC50 does the source give for `COc1c(OCCCN2CCOC(CO)C2)ccc2c1N=C(NC(=O)c1cccnc1)N1CCN=C21` (stereo not drawn) [Example 18, N-(8-{3-[2-(hydroxymethyl)morpholin-4-yl]propoxy}-7-methoxy-2,3-dihydroimidazo[1,2-c]quinazolin-5-yl)nicotinamide] here?
Answer: < 100 nM

Question: Which IC50 does the source give for `COc1c(OCCCN2CCOCC2)ccc2c1N=C(NC(=O)c1ccc(N3CCCC3)nc1)N1CCN=C21` [Example 72, N-[7-methoxy-8-(3-morpholin-4-ylpropoxy)-2,3-dihydroimidazo[1,2-c]quinazolin-5-yl]-6-pyrrolidin-1-ylnicotinamide] here?
Answer: 100 to 1000 nM

Question: How did the IC50 turn out when `COc1c(OCCCN(C)C)ccc2c1N=C(NC(=O)c1cnc(NCCN(C)C)nc1)N1CCN=C21` [Example 36, 2-{[2-(dimethylamino)ethyl]amino}-N-{8-[3-(dimethylamino)propoxy]-7-methoxy-2,3-dihydroimidazo[1,2-c]quinazolin-5-yl}pyrimidine-5-carboxamide] was run?
Answer: 100 to 1000 nM

Question: How did the IC50 turn out when `COc1c(OCCN(C(C)C)C(C)C)ccc2c1N=C(NC(=O)c1cccnc1)N1CCN=C21` [Example 86, N-{8-[2-(diisopropylamino)ethoxy]-7-methoxy-2,3-dihydroimidazo[1,2-c]quinazolin-5-yl}nicotinamide] was run?
Answer: 100 to 1000 nM
